Assay results from PubChem BioAssay AID256 (DTP/NCI, 2004).
Where “and” joins values, the source holds several entries; their conditions need not be identical. Identical values can stand only once. Toxic doses and inconclusive results are not listed. How the source made its calls: active means survival T/C of 150% or more; inactive means T/C below 125% in these data.

Tested on: CD2F1 mice, L1210 leukemia ip, survival T/C
Test: NCI In Vivo Anticancer Drug Screen. Data for tumor model L1210 Leukemia (intraperitoneal) in CD2F1 (CDF1) mice
Settings: higher = longer survival
Outline: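 In this screen, transplantable tumors were grown in mice given either the compound or its vehicle. Results were expressed as the treated measurement relative to the control measurement.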

[1] = endpoint: mean survival time, dose: 100.0 mg/kg/injection, schedule: Q01DX001 (ip), vehicle: saline with Tween-80
[2] = endpoint: mean survival time, dose: 100.0 mg/kg/injection, schedule: Q01DX009 (ip), vehicle: saline with Tween-80
[3] = endpoint: mean survival time, dose: 100.0 mg/kg/injection, schedule: Q04DX003 (ip), vehicle: saline with Tween-80
[4] = endpoint: mean survival time, dose: 200.0 mg/kg/injection, schedule: Q01DX001 (ip), vehicle: saline with Tween-80
[5] = endpoint: mean survival time, dose: 200.0 mg/kg/injection, schedule: Q01DX009 (ip), vehicle: saline with Tween-80
[6] = endpoint: mean survival time, dose: 200.0 mg/kg/injection, schedule: Q04DX003 (ip), vehicle: saline with Tween-80
[7] = endpoint: mean survival time, dose: 400.0 mg/kg/injection, schedule: Q01DX001 (ip), vehicle: saline with Tween-80
[8] = endpoint: mean survival time, dose: 400.0 mg/kg/injection, schedule: Q01DX009 (ip), vehicle: saline with Tween-80
[9] = endpoint: mean survival time, dose: 400.0 mg/kg/injection, schedule: Q04DX003 (ip), vehicle: saline with Tween-80
[10] = endpoint: mean survival time, dose: 100.0 mg/kg/injection, schedule: Q01DX001 (ip), vehicle: saline
[11] = endpoint: mean survival time, dose: 200.0 mg/kg/injection, schedule: Q01DX001 (ip), vehicle: saline
[12] = endpoint: mean survival time, dose: 400.0 mg/kg/injection, schedule: Q01DX001 (ip), vehicle: saline
[13] = endpoint: mean survival time, dose: 100.0 mg/kg/injection, schedule: Q04DX003 (ip), vehicle: saline
[14] = endpoint: mean survival time, dose: 100.0 mg/kg/injection, schedule: Q04DX002 (ip), vehicle: saline with Tween-80
[15] = endpoint: mean survival time, dose: 200.0 mg/kg/injection, schedule: Q04DX002 (ip), vehicle: saline with Tween-80
[16] = endpoint: mean survival time, dose: 400.0 mg/kg/injection, schedule: Q04DX002 (ip), vehicle: saline with Tween-80

Measured: T/C

CCC(=O)c1cccc([N+](=O)[O-])c1
inactive: [1] 100 % of control | [2] 96 % of control | [3] 102 % of control | [4] 104 % of control | [5] 97 % of control | [6] 102 % of control | [7] 93 % of control | [8] 97 % of control | [9] 98 % of control

C=CCOc1c(C)cc(C(C)(C)c2cc(C)c(OCC=C)c(C)c2)cc1C
inactive: endpoint: mean survival time, dose: 25.0 mg/kg/injection, schedule: Q01DX001 (ip), vehicle: other 104 % of control | endpoint: mean survival time, dose: 50.0 mg/kg/injection, schedule: Q01DX001 (ip), vehicle: other 103 % of control | endpoint: mean survival time, dose: 100.0 mg/kg/injection, schedule: Q01DX001 (ip), vehicle: other 94 % of control and 97 % of control | endpoint: mean survival time, dose: 400.0 mg/kg/injection, schedule: Q01DX001 (ip), vehicle: other 96 % of control

ClCC1C(CCl)C2(Cl)C(Cl)=C(Cl)C1(Cl)C2(Cl)Cl (stereo not drawn)
inactive: [2] 100 % of control | [3] 93 % of control | [5] 98 % of control | [6] 95 % of control | [8] 93 % of control | [9] 93 % of control

CN(C)Cc1cccc2ccccc12
inactive: endpoint: mean survival time, dose: 12.5 mg/kg/injection, schedule: Q01DX009 (ip), vehicle: Klucel (hydroxypropylcellulose) (HPC) 109 % of control | endpoint: mean survival time, dose: 25.0 mg/kg/injection, schedule: Q01DX009 (ip), vehicle: Klucel (hydroxypropylcellulose) (HPC) 109 % of control | endpoint: mean survival time, dose: 50.0 mg/kg/injection, schedule: Q01DX009 (ip), vehicle: Klucel (hydroxypropylcellulose) (HPC) 97 % of control

COc1ccn(C2OC(=O)C(C)(C)C2=O)c(=O)n1 (stereo not drawn)
inactive: endpoint: median survival time, dose: 12.5 mg/kg/injection, schedule: Q01DX005 (ip), vehicle: saline 101 % of control | endpoint: median survival time, dose: 25.0 mg/kg/injection, schedule: Q01DX005 (ip), vehicle: saline 100 % of control | endpoint: median survival time, dose: 50.0 mg/kg/injection, schedule: Q01DX005 (ip), vehicle: saline 101 % of control | endpoint: median survival time, dose: 100.0 mg/kg/injection, schedule: Q01DX005 (ip), vehicle: saline 101 % of control | endpoint: median survival time, dose: 200.0 mg/kg/injection, schedule: Q01DX005 (ip), vehicle: saline 100 % of control

C1C2CC3CC3CC12 (stereo not drawn)
inactive: [3] 93 % of control

CN(C)CCOC(=O)COc1ccc(Cl)cc1
inactive: [10] 97 % of control | [11] 100 % of control | [12] 94 % of control

CCOC(=O)CC/C(C)=N\N(C)C
inactive: [2] 103 % of control | [5] 97 % of control | [8] 96 % of control

N#Cc1cccc[n+]1Cc1ccc([N+](=O)[O-])cc1
inactive: endpoint: mean survival time, dose: 25.0 mg/kg/injection, schedule: Q01DX009 (ip), vehicle: saline with Tween-80 108 % of control | endpoint: mean survival time, dose: 50.0 mg/kg/injection, schedule: Q01DX009 (ip), vehicle: saline with Tween-80 101 % of control

c1ccc2c(c1)-c1nc3ccccc3cc1CC21CCCC1
inactive: [1] 98 % of control | [4] 98 % of control | [7] 93 % of control

NC(=S)N/N=C/c1ccc(Cl)cn1
inactive: endpoint: mean survival time, dose: 4.89 mg/kg/injection, schedule: Q01DX009 (ip), vehicle: saline with Tween-80 120 % of control | endpoint: mean survival time, dose: 6.25 mg/kg/injection, schedule: Q04DX002 (ip), vehicle: saline with Tween-80 100 % of control | endpoint: mean survival time, dose: 12.5 mg/kg/injection, schedule: Q04DX002 (ip), vehicle: saline with Tween-80 104 % of control and 108 % of control

Cc1ccc(S(=O)(=O)N/N=C/c2ccc(C(=O)O)cc2)cc1
inactive: endpoint: mean survival time, dose: 12.5 mg/kg/injection, schedule: Q04DX003 (ip), vehicle: other 101 % of control | endpoint: mean survival time, dose: 25.0 mg/kg/injection, schedule: Q04DX003 (ip), vehicle: other 97 % of control | endpoint: mean survival time, dose: 50.0 mg/kg/injection, schedule: Q04DX003 (ip), vehicle: other 106 % of control | endpoint: mean survival time, dose: 100.0 mg/kg/injection, schedule: Q04DX003 (ip), vehicle: other 95 % of control | endpoint: mean survival time, dose: 200.0 mg/kg/injection, schedule: Q04DX003 (ip), vehicle: other 95 % of control | endpoint: mean survival time, dose: 400.0 mg/kg/injection, schedule: Q04DX003 (ip), vehicle: other 106 % of control

O=C(NNC(=O)OCC(Cl)(Cl)Cl)OCC(Cl)(Cl)Cl
inactive: [3] 102 % of control

NC(=O)c1cn(C2CCCCC2)c2ncccc12
inactive: [10] 96 % of control | [11] 96 % of control | [12] 102 % of control

C[Si](OP(=O)(O[Si](C)(c1ccccc1)c1ccccc1)N(CCCl)CCCl)(c1ccccc1)c1ccccc1
inactive: endpoint: mean survival time, dose: 15.63 mg/kg/injection, schedule: Q01DX001 (ip), vehicle: distilled water + Tween-80 104 % of control | endpoint: mean survival time, dose: 31.25 mg/kg/injection, schedule: Q01DX001 (ip), vehicle: distilled water + Tween-80 97 % of control | endpoint: mean survival time, dose: 62.5 mg/kg/injection, schedule: Q01DX001 (ip), vehicle: distilled water + Tween-80 101 % of control | endpoint: mean survival time, dose: 125.0 mg/kg/injection, schedule: Q01DX001 (ip), vehicle: distilled water + Tween-80 95 % of control | endpoint: mean survival time, dose: 250.0 mg/kg/injection, schedule: Q01DX001 (ip), vehicle: distilled water + Tween-80 97 % of control | endpoint: mean survival time, dose: 500.0 mg/kg/injection, schedule: Q01DX001 (ip), vehicle: distilled water + Tween-80 115 % of control

CC(=O)Nc1cc(C)c(C)cc1[N+](=O)[O-]
inactive: [1] 98 % of control | [4] 101 % of control | [7] 98 % of control

COc1cc(C(=O)N/N=C/c2ccc(N(C)C)cc2)cc(OC)c1OC
inactive: [2] 119 % of control | [5] 98 % of control

COc1cc(NC(C)=O)c2ncccc2c1Br
inactive: [3] 104 % of control | [6] 97 % of control | [9] 92 % of control

Cc1nc(N)[nH]c(=O)c1CCCNc1cccnc1
inactive: [1] 96 % of control | [4] 92 % of control | [7] 92 % of control

Nc1ccc(Cl)cc1N
inactive: endpoint: mean survival time, dose: 25.0 mg/kg/injection, schedule: Q01DX009 (ip), vehicle: other 96 % of control | endpoint: mean survival time, dose: 50.0 mg/kg/injection, schedule: Q01DX009 (ip), vehicle: other 102 % of control | endpoint: mean survival time, dose: 75.0 mg/kg/injection, schedule: Q01DX009 (ip), vehicle: other 107 % of control | endpoint: mean survival time, dose: 100.0 mg/kg/injection, schedule: Q01DX009 (ip), vehicle: other 106 % of control | endpoint: mean survival time, dose: 150.0 mg/kg/injection, schedule: Q01DX009 (ip), vehicle: other 112 % of control

N#CC1C=Cc2ccccc2N1C(=O)Oc1ccccc1 (stereo not drawn)
inactive: endpoint: mean survival time, dose: 100.0 mg/kg/injection, schedule: Q01DX009 (ip), vehicle: saline 95 % of control | endpoint: mean survival time, dose: 200.0 mg/kg/injection, schedule: Q01DX009 (ip), vehicle: saline 93 % of control | endpoint: mean survival time, dose: 400.0 mg/kg/injection, schedule: Q01DX009 (ip), vehicle: saline 89 % of control

CC(C)(SCC(N)C(=O)O)c1ccc(-c2ccccc2)cc1 (stereo not drawn)
inactive: [1] 88 % of control | [4] 86 % of control | [7] 91 % of control

CCC/C=N\O
inactive: [13] 110 % of control | endpoint: mean survival time, dose: 200.0 mg/kg/injection, schedule: Q04DX003 (ip), vehicle: saline 93 % of control | endpoint: mean survival time, dose: 400.0 mg/kg/injection, schedule: Q04DX003 (ip), vehicle: saline 100 % of control

CNC(=S)SCCC(=O)O
inactive: [14] 113 % of control | [15] 102 % of control | [16] 102 % of control

CC/C=C/C(C)OC(=N)C(Cl)(Cl)Cl (stereo not drawn)
inactive: [14] 103 % of control | [15] 100 % of control | [16] 97 % of control

CCCN(CCC)S(=O)(=O)c1ccc(NC(=O)OCc2ccccc2)cc1
inactive: [10] 103 % of control | [11] 103 % of control | [12] 93 % of control

CC(C)COCCCN
inactive: [13] 98 % of control
